Five compounds from patent US20220110910A1, “CANNABINOID-CONTAINING COMPLEX MIXTURES FOR THE TREATMENT OF CYTOKINE RELEASE SYNDROME WHILE PRESERVING KEY ANTI-VIRAL IMMUNE REACTIONS” (GBS Global BioPharma, Inc., priority 2020, published 2022) can be followed below.

What all share (assay type): cell-based, human
For assay [1], the system named is CD8+ T cells. Description: T cell proliferation (CFSE, FlowJo Proliferation tool). The settings on record: increasing concentration up to 10 μM. The protocol:
(§1) In immunological activity experiments, PBMC suspensions were pre-treated with cannabinoid and/or terpene compounds for 30 minutes before treatment with designated stimuli, cultured in 96 well tissue culture plates, and incubated at 37° C. and 5.0% CO2. In pDC experiments, cell suspensions were stimulated with CpG-ODN Type A 2216 (15 μg/mL) (InvivoGen©, San Diego, Calif.) following treatment with cannabinoids. Golgi transport inhibitors Monensin (2 μM)/Brefeldin A (3.0 μg/mL) (Thermo Fisher Scientific, Waltham, Mass.) were added to culture 3 hours post-stimulation, and after 7 hours of stimulation cells were harvested for evaluation by flow cytometry for IFNα and TNFα. In monocyte experiments, cell suspensions were stimulated with 1000 ng/mL LPS (S. typhosa, Sigma Aldrich, St. Louis, Mo.) for 18 hours before harvesting supernatants for IL-1β, Golgi blocked for 6 hours before harvesting cells for assessment of IL-6, or cultured for 48 hours before harvesting cells for assessment of HLA-DR, CD80, and CD86. In phagocytosis experiments, cell suspensions were treated with 3.0 mg/mL of pHrodo Green BioParticles (Thermo Fisher). In T cell experiments, cells were plated on 96 well tissue culture plates pre-coated with 5.0 μg/mL anti-CD3 (clone UCHT1, Biolegend, San Diego, Calif.) and stimulated with 5.0 μg/mL anti-CD28 (clone 28.2, Biolegend) and supplemented with 5.0 ng/mL IL-2 (Roche Applied Science, Indianapolis, Ind.). CD25 and CD69 were assessed by flow cytometry 24 hours post-stimulation. In proliferation experiments, cell suspensions were incubated with CFSE Cell Division Tracker (Biolegend) according to manufacturer protocols, harvested 4 days post-stimulation and assessed by flow cytometry. Cell suspensions were further stimulated with 50 ng/mL phorbol 12-myristate 13-acetate (PMA) and 1000 ng/mL ionomycin (Io) at 4 days post-stimulation for 18 hours, Golgi blocked for 6 hours, and harvested for IL-4 and IFNγ assessment by flow cytometry.
(§2) In brief, pDC, monocyte and T cell were identified using antibodies directed against unique epitopes for each cell type and analyzed by flow cytometry. Cells were fixed in BD CytoFix and resuspended in FACS buffer for extracellular staining. […] For intracellular staining, fixed cells were permeabilized in BD Permwash and incubated with appropriate antibodies and 7% human AB serum. pDC were identified as CD303+and assessed for intracellular IFNα and TNFα. Monocytes were identified as CD14+ and assessed for extracellular HLA-DR, CD80, CD86, and intracellular TNFα and IL-6. […] T cells were identified as CD3+ and T cell subsets identified by CD4+ and CD8+ and assessed for extracellular CD25 and CD69 and intracellular IFNγ and IL-4. […]

Assay [2] has as its system CD4+ T cells. Described as above. The conditions noted are these: 10 μM. Here is the method:
as §1, §2

The test system of assay [3] is monocytes. Put plainly: IL-6+ monocytes after LPS stimulation (intracellular staining). The settings on record: LPS 1000 ng/mL, vs vehicle. The protocol: as §1, with “In T cell experiments, cells were plated on 96 well tissue culture plates pre-coated with 5.0 μg/mL anti-CD3 (clone UCHT1, Biolegend, San Diego, Calif.) and stimulated with 5.0 μg/mL anti-CD28 (clone 28.2, Biolegend) and supplemented with 5.0 ng/mL IL-2 (Roche Applied Science, Indianapolis, Ind.).” left out, “Cell suspensions were further stimulated with 50 ng/mL phorbol 12-myristate 13-acetate (PMA) and 1000 ng/mL ionomycin (Io) at 4 days post-stimulation for 18 hours, Golgi blocked for 6 hours, and harvested for IL-4 and IFNγ assessment by flow cytometry.” left out
as §2, with “cytometry.” for “cytometry. Cells were fixed in BD CytoFix and resuspended in FACS buffer for extracellular staining.”

Assay [4] relates to monocytes. Put plainly: Co-stimulatory markers HLA-DR, CD80, CD86 on monocytes after LPS. The settings on record: 2 days, vs vehicle. The protocol:
as §1
In brief, pDC, monocyte and T cell were identified using antibodies directed against unique epitopes for each cell type and analyzed by flow cytometry. Cells were fixed in BD CytoFix and resuspended in FACS buffer for extracellular staining. To determine the changes in cell viability in mixed PBMC, gates were first set on singlet events, then CD45+ cells, then populations identified by CD3+ (T cells) and CD14+ (monocytes), and then 7-AAD- for viability. Likewise, for pDC viability experiments, pDC were identified as CD303+ and viable by exclusion of Near IR L/D stain (Life Technologies, Carlsbad, Calif.). For intracellular staining, fixed cells were permeabilized in BD Permwash and incubated with appropriate antibodies and 7% human AB serum. pDC were identified as CD303+and assessed for intracellular IFNα and TNFα. Monocytes were identified as CD14+ and assessed for extracellular HLA-DR, CD80, CD86, and intracellular TNFα and IL-6. In phagocytosis experiments, PBMC were identified as CD45+ and monocytes were identified based on side scatter and then phagocytosing monocytes. T cells were identified as CD3+ and T cell subsets identified by CD4+ and CD8+ and assessed for extracellular CD25 and CD69 and intracellular IFNγ and IL-4. To analyze T cell proliferation, FlowJo 10.0 proliferation tool was used by setting the undivided peak of CFSE stained cells in each sample.

In assay [5] the test system is monocytes. Put plainly: TNFα+ monocytes after CpG-ODN stimulation (intracellular staining). The settings on record: CpG-ODN 15 μg/mL, 6 hours, vs vehicle. The protocol:
FIGS. 9A-9B reveal the TNFα decreasing potential of cannabinol (CBN). […] PBMC were isolated from human peripheral blood and pre-treated with the indicated concentrations of cannabinol for 30 minutes, followed by stimulation with 15 μg/mL CpG-ODN for 6 hours (FIG. 9A). Cells were non-enzymatically released from culture plates and assessed for the percentage of TNFα+ monocytes (FIG. 9A) by intracellular staining. For FIG. 9B, PBMC were isolated from human peripheral blood and pre-treated with the indicated concentrations of cannabinol for 30 minutes, followed by treatment with 3.0 mg/mL of pHrodo Green BioParticles (FIG. 9B). In FIG. 9B, cells were treated with 3.0 mg/mL of pHrodo Green BioParticles and assessed for phagocytosis monocytes by flow cytometry within 2 hours. Data are normalized to each donor's vehicle control when appropriate and presented as mean±SEM. N=4-6 donors per treatment group. […] *p<0.05 when compared to VH (FIG. 9A), or **p<0.01 when compared to VH (FIG. 9B), by repeated measure one-way ANOVA with Dunnett's posttest.
as §2

Assay [6] has as its system monocytes. Put plainly: IL-1β ELISA in supernatants of LPS-stimulated PBMC. The conditions noted are these: LPS 1000 ng/mL, vs vehicle. The protocol: as §1
To quantify IL-1β produced by monocytes, supernatants were collected from LPS stimulated cell suspensions after 18 hours and frozen at −80° C. ELISA MAX from Biolegend was used as per manufacturer protocol to quantify IL-1β to a sensitivity of […].

Assay [7] concerns monocytes. Description: Phagocytosis of pHrodo Green BioParticles by monocytes. The conditions noted are these: 10 μM; pHrodo Green BioParticles 3.0 mg/mL; vs vehicle. Here is the method: as §1, with “In T cell experiments, cells were plated on 96 well tissue culture plates pre-coated with 5.0 μg/mL anti-CD3 (clone UCHT1, Biolegend, San Diego, Calif.) and stimulated with 5.0 μg/mL anti-CD28 (clone 28.2, Biolegend) and supplemented with 5.0 ng/mL IL-2 (Roche Applied Science, Indianapolis, Ind.).” left out, “Cell suspensions were further stimulated with 50 ng/mL phorbol 12-myristate 13-acetate (PMA) and 1000 ng/mL ionomycin (Io) at 4 days post-stimulation for 18 hours, Golgi blocked for 6 hours, and harvested for IL-4 and IFNγ assessment by flow cytometry.” left out
as §2, with “cytometry.” for “cytometry. Cells were fixed in BD CytoFix and resuspended in FACS buffer for extracellular staining.”

In assay [8] the test system is CD8+ T cells. Description: Intracellular IFNγ after anti-CD3/anti-CD28 stimulation and PMA/ionomycin. The settings on record: vs vehicle. The protocol:
as §1, §2

The subject of assay [9] is CD8+ T cells. Put plainly: T cell activation markers CD25 and CD69, 24 hours post-stimulation. The conditions noted are these: 10 μM. Here is the method:
as §1, with “In T cell experiments, cells were plated on 96 well tissue culture plates pre-coated with 5.0 μg/mL anti-CD3 (clone UCHT1, Biolegend, San Diego, Calif.) and stimulated with 5.0 μg/mL anti-CD28 (clone 28.2, Biolegend) and supplemented with 5.0 ng/mL IL-2 (Roche Applied Science, Indianapolis, Ind.).” left out, “Cell suspensions were further stimulated with 50 ng/mL phorbol 12-myristate 13-acetate (PMA) and 1000 ng/mL ionomycin (Io) at 4 days post-stimulation for 18 hours, Golgi blocked for 6 hours, and harvested for IL-4 and IFNγ assessment by flow cytometry.” left out
as §2, with “cytometry.” for “cytometry. Cells were fixed in BD CytoFix and resuspended in FACS buffer for extracellular staining.”

Assay [10] has as its system CD4+ T cells. Description: Intracellular IFNγ and IL-4 after anti-CD3/anti-CD28 stimulation and PMA/ionomycin. The conditions noted are these: vs vehicle. The protocol: as §1, §2

“Also recorded” adds a separate entry of the source.

With `CCCCCc1cc(O)c2c(c1)OC(C)(CCC=C(C)C)C=C2` (centres unmarked) [CBC, cannabichromene], the “T cell proliferation in CD8+ T cells” value in the assay with CD8+ T cells [1] is given as “not statistically significant”. Besides, in the assay on CD4+ T cells [2], the “T cell proliferation in CD4+ T cells” value was “significantly decreased”. The IL-6 in monocytes entry with monocytes [3] (10 μM) is “significantly decreased”. Also, the “HLA-DR co-stimulatory marker in monocytes” value (from here on “HLA-DR co-stimulatory marker”) in the assay with monocytes [4] (10 μM) is reported as “increased”. In addition, the “CD86+ co-stimulatory marker in monocytes” value in the assay with monocytes [4] (1-10 μM) is listed as “increased”. Besides, the TNFα in monocytes entry in the assay with monocytes [5] (0.1 μM) is recorded as “significantly increased”.

For the compound `C=C(C)[C@@H]1CCC(C)=C[C@H]1c1c(O)cc(CCCCC)cc1O` [CBD, cannabidiol, reference compound], the IL-6 in monocytes result in the assay on monocytes [3] (10 μM) is on record as “significantly decreased”. For the same compound, the IL-1β in monocytes entry in the assay on monocytes [6] (10 μM) is “significantly decreased”. Moreover, the phagocytosis by monocytes entry with monocytes [7] is “reduced; also recorded: significantly decreased”.

Take `C=C(C)[C@@H]1CCC(C)=C[C@H]1c1c(O)cc(CCC)cc1O` [CBDV, cannabidivarin]: the “IFNγ in T cells (FIG. 8A: CD8+ T cells)” value with CD8+ T cells [8] (0.01 μM) is “significantly decreased”. Besides, in the assay on monocytes [3] (1-10 μM), the IL-6 in monocytes entry is on record as “significantly decreased”. Besides, in the assay on CD8+ T cells [9], the “CD25+ activation marker in CD8+ T cells” value was “decreased” and the “CD69+ activation marker in CD8+ T cells” value is listed as “decreased”. Also, in the assay on monocytes [4] (10 μM), the “CD80+ co-stimulatory marker in monocytes” value is “significantly decreased”, the “CD86+ co-stimulatory marker in monocytes” value was “increased” and the “HLA-DR co-stimulatory marker” value is “significantly decreased”. For the same compound, in the assay on monocytes [6] (0.01 μM), the IL-1β in monocytes entry is given as “increased; also recorded: significantly increases”. The IL-1β in monocytes result with monocytes [6] (10 μM) is on record as “significantly decreased”. Moreover, the phagocytosis by monocytes result with monocytes [7] is “significantly decreased”.

Regarding `CCCCCc1cc(O)c(C/C=C(\C)CCC=C(C)C)c(O)c1` [CBG, cannabigerol], the “IFNγ in CD4+ T cells” value in the assay on CD4+ T cells [10] (0.01-1 μM) is “significantly decreased”. Besides, in the assay with CD4+ T cells [10] (0.1-1 μM), the “IL-4 levels in CD4+ T cells” value was “significantly decreased”. Moreover, the “IFNγ in CD8+ T cells” value in the assay with CD8+ T cells [8] (0.01-1 μM) is reported as “significantly decreased”. The “HLA-DR co-stimulatory marker” value in the assay with monocytes [4] (10 μM) is “increased; also recorded: enhanced”. In the assay on monocytes [4] (1-10 μM), the “CD86+ co-stimulatory marker in monocytes” value is reported as “increased; also recorded: enhanced”. In the assay on monocytes [6] (10 μM), the IL-1β in monocytes result is “significantly decreased”.

With `CCCCCc1cc(O)c2c(c1)OC(C)(C)c1ccc(C)cc1-2` [CBN, cannabinol], the “IFNγ in CD4+ T cells” value in the assay on CD4+ T cells [10] (0.001-0.1 μM) was “significantly decreased”. Also, the “IFNγ in CD8+ T cells” value in the assay on CD8+ T cells [8] (0.001-0.1 μM) is listed as “significantly decreased”. For the same compound, the TNFα in monocytes result in the assay with monocytes [5] (10 μM) was “significantly decreased”. For the same compound, in the assay with monocytes [7], the phagocytosis by monocytes entry is reported as “decreasing; also recorded: significantly decreased”.
